In patent US20240376154A1, “BIS-INTERCALATING PEPTIDES, CONJUGATES AND METHODS OF USE” (ZYMEWORKS BC INC., priority 2023, published 2024):
Where two headings read alike, the source gives them in different places. Where a SMILES comes first, the peptide text is derived from it. Bridges are numbered along the chain shown (N, C = ends). Roman numbers before positions name the chains, in order. [ ]: non-standard residue; d: D form. The star is where a group is joined. Quinaldoyl(3-OH) = O=C(c1nc2ccccc2cc1O)*; NMeV = CN[C@H](C(=O)O)C(C)C; Pip = O=C(O)[C@@H]1CCCCN1; dDap = NC[C@@H](N)C(=O)O; Sar = CNCC(=O)O

Experiments:
[1] = system: biotinylated hairpin DNA sequence 5'-GCATGCTTTTGCATGC; assay: DNA binding by surface plasmon resonance (SPR); conditions: for KD (mM): SPR, 25° C., hairpin DNA
Description: Representative compounds prepared as described in Example 2 were assessed in two complementary DNA-binding assays. Increased melting temperature of herring sperm DNA was measured using differential scanning calorimetry (DSC) and binding kinetics were determined by surface plasmon resonance (SPR) using a short DNA hairpin sequence.
SPR experiments were conducted at 25° C. using a Biacore™ T200 instrument and SA-Biotin chip. PBST Buffer: Gibco PBS, pH 7.4 was modified with Tween®20 (0.01%) and DMSO (2%). Immobilization: a short biotinylated hairpin DNA sequence 5′-GCATGCTTTTGCATGC (5′ biotin) (SEQ ID NO: 1) that contains two known sandramycin binding segments (in bold) was heated to 90° C., cooled to RT then immobilized to 700 RU. Bis-intercalating peptides at concentrations of 5, 2.5, 1.25, 0.625, and 0.312 μM in PBST were flowed over the chip at 20 μL/min with an association time of 600 s followed by dissociation for 600 s. Reference cell values were subtracted and binding constants ka, kd, and KD were determined using Biacore™ T200 Evaluation Software, version 3.0.

[2] = system: tumour cells (at least 4 of a panel of ovarian, breast, lung, pancreatic, placenta, colon cell lines); assay: In vitro cytotoxicity (cell proliferation, CellTiter-Glo), average over tumour cell line panel; type: cell-based; conditions: for pIC50 (average): average pIC50 on all cell lines tested, 5 nights incubation, CellTiter-Glo
Summary of the method: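 Each cell line seeded at ~1000 cells/well and left to adhere overnight, then given a 10-point 1:3 compound titration for 5 nights at 37° C, 5% CO2. Viability read by CellTiter-Glo luminescence; IC50 per line, reported as pIC50 averaged across at least 4 lines.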

[3] = Lipophilicity by experimental HPLC retention time; type: physicochemical; conditions: HPLC retention time as measure of lipophilicity; C18, 10 to 90% CH3CN/H2O with 0.1% FA over 25 min
Summary of the method: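 Reversed-phase HPLC with diode array detection on a Kinetex EVO C18 150×4.6, 2.6 μm column. Gradient 10 to 90% CH3CN/H2O with 0.1% FA over 25 min; retention time serves as the lipophilicity measure.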

[4] = amide bond, 32-membered ring

| Compound | DNA binding via SPR (in words) [1] | pIC50 (average) [2] | HPLC [3] | ring closure, yield after HPLC [4] | further results |
| --- | --- | --- | --- | --- | --- |
| CC(C)[C@H]1C(=O)NC[C@@H](NC(=O)c2nc3ccccc3cc2O)C(=O)N2CCCC[C@H]2C(=O)NCC(=O)NCC(=O)N(C)[C@@H](C(C)C)C(=O)NC[C@@H](NC(=O)c2nc3ccccc3cc2O)C(=O)N2CCCC[C@H]2C(=O)NCC(=O)NCC(=O)N1C [Compound 137, N,N′-((7R,11S,19aS,26R,30S,38aS)-11,30-diisopropyl-12,31-dimethyl-6,10,13,16,19,25,29,32,35,38-decaoxohexatriacontahydro-2H,6H-dipyrido[1,2-a:1′,2′-q][1,4,7,10,13,17,20,23,26,29]decaazacyclodotriacontine-7,26-diyl)bis(3-hydroxyquinoline-2-carboxamide)] (I: {Quinaldoyl(3-OH)}-[dDap][Pip]GG[NMeV] / II: {Quinaldoyl(3-OH)}-[dDap][Pip]GG[NMeV]; amide I:1-II:C, I:C-II:1) | did not demonstrate measurable DNA binding | Inactive | 15.1 min | – | KD (mM) [1]: none; activity in cell assays (in words) [2]: inactive in cell assays |
| CC(C)[C@@H]1NC(=O)CN(C)C(=O)CNC(=O)[C@@H]2CCCCN2C(=O)[C@H](NC(=O)c2nc3ccccc3cc2O)CNC(=O)[C@H](C(C)C)NC(=O)CN(C)C(=O)CNC(=O)[C@@H]2CCCCN2C(=O)[C@H](NC(=O)c2nc3ccccc3cc2O)CNC1=O [Compound 152] (I: {Quinaldoyl(3-OH)}-[dDap][Pip]G[Sar]V / II: {Quinaldoyl(3-OH)}-[dDap][Pip]G[Sar]V; amide I:1-II:C, I:C-II:1) | near complete loss of binding | 6.9 | 14.6 min | – | – |
| CC(C)[C@H]1C(=O)NCC(=O)N(C)CC(=O)N2CCCC[C@H]2C(=O)NC[C@@H](NC(=O)c2nc3ccccc3cc2O)C(=O)N(C)[C@@H](C(C)C)C(=O)NCC(=O)N(C)CC(=O)N2CCCC[C@H]2C(=O)NC[C@@H](NC(=O)c2nc3ccccc3cc2O)C(=O)N1C [Compound 414, N,N′-((13S,16R,19aS,32S,35R,38aS)-13,32-diisopropyl-8,14,27,33-tetramethyl-6,9,12,15,19,25,28,31,34,38-decaoxohexatriacontahydro-2H,6H-dipyrido[2,1-c: 2′,1′-s][1,4,7,10,13,17,20,23,26,29]decaazacyclodotriacontine-16,35-diyl)bis(3-hydroxyquinoline-2-carboxamide)] | non-binding | inactive | 16.8 min | – | KD (mM) [1]: none; activity in cell assays (in words) [2]: inactive |
| (7R,11S,19aS,26R,38aS)-26-(((benzyloxy)carbonyl)amino)-11-isopropyl-12,15,30,30,31,34-hexamethyl-6,10,13,16,19,25,29,32,35,38-decaoxohexatriacontahydro-2H,6H-dipyrido[1,2-a:1′,2′-q][1,4,7,10,13,17,20,23,26,29]decaazacyclodotriacontin-7-aminium trifluoroacetate | – | – | – | – | ring closure, yield after HPLC ([4]; 2 steps): 45% |
| Benzyl N-[(3R,7S,20S,27R,31S,44S)-27-[(tert-butoxycarbonyl)amino]-15,39-dimethyl-2,6,13,16,19,26,30,37,40,43-decaoxo-1,5,12,15,18,25,29,36,39,42-decaazapentacyclo[42.4.0.0^7,12.0^20,25.0^31,36]octatetracontan-3-yl]carbamate | – | – | – | 40% | – |
| Benzyl tert-butyl ((7R,11S,19aS,26R,30S,38aS)-11,30-diisopropyl-15,34-dimethyl-6,10,13,16,19,25,29,32,35,38-decaoxohexatriacontahydro-2H,6H-dipyrido[1,2-a:1′,2′-q][1,4,7,10,13,17,20,23,26,29]decaazacyclodotriacontine-7,26-diyl)dicarbamate | – | – | – | 20% | – |
| Tert-butyl (4-nitrobenzyl) ((7R,10aS,22aS,29R,32aS,44aS)-18,40-dimethyl-6,16,19,22,28,32,38,41,44-nonaoxodotetracontahydro-6H-tetrapyrido[2,1-b1: 2′,1′-c: 2″,1″-1:2′″,1′″-s][1]oxa[4,7,10,13,17,20,23,26,29]nonaazacyclodotriacontine-7,29-diyl)dicarbamate | – | – | – | 23% | – |
